For series [1], the target named is HCV 1b NS5B polymerase, Wild-Type NS5B (Hepatitis C virus genotype 1b, UniProt Q9WMX2).
The next series concerns BVDV. The series is described as follows: (BVDV) yield reduction assay. The class given is cell-based, bovine viral diarrhea virus. The following applies: for EC90: Bovine viral diarrhea virus isolates and strains. The procedure:
Madin-Darby Bovine Kidney (MDBK) cells were grown in Dulbecco's modified eagle medium supplemented with 10% horse serum and 100 μg/ml penicillin-streptomycin. Cells were seeded in a 96-well plate at 5×10^3 cells/well and incubated for 72h at 37° C. in a humidified 5% CO2 atmosphere. Cells were infected with either cytopathic (NADL strain) or noncytopathic (SD-1 strain) BVDV at a virus dilution of 10-2 and incubated for 45 min. Cell monolayers were washed three times with medium. Fresh medium-containing test compounds in dose response concentrations or ribavirin, as a positive control, were added to cultures and medium containing no drug was added to the no-drug controls. After 72h incubation, supernatant was collected and viral RNA was extracted using the QIAmp Viral RNA Mini Kit (Qiagen, CA). Viral load was determined by Q-RT-PCR using primers specific for either NADL or SD-1 (1).

For the next series, the system named is RSV. The series is described as follows: Antiviral activity, RSV. The class given is cell-based. The settings on record: human respiratory syncytial virus.
Series [2] can be described thus: Cytotoxicity assay (MTS), CloneA. The series is classed as cell-based. The following applies: human, Clone A cells. The procedure: (§1) 50 μl of 2× drug dilutions were added per well in a 96 well plate. Final concentrations of drug ranged from 1 to 100 μM. A “no drug” (media only) control was used to determine the minimum absorbance values and a “cells+media only” control was used for maximum absorbance value. A solvent control was also used. Cells were then added (PBM: 5×10^4 cells/well; CEM: 2.5×10^3 cells/well; Vero, HepG2, Huh-7, and Clone A: 5×10^3 cells/well) and incubated at 37° C. in a humidified 5% CO2 atmosphere for 3-5 days (PBM: 5 days; CEM: 3 days, all others: 4 days). After incubation, 20 μl of MTS dye was added from Cell Titer Aqueous One Solution Cell Proliferation Assay to each well and the plate was re-incubated for 2-4 hours. The absorbance (490 nm) was then read on an ELISA plate reader using the media only/no cell wells as blanks. Percent inhibition was found and used to calculate the CC50.

Series [3] can be described thus: Cytotoxicity assay (MTS), Huh7. The class given is cell-based. The following applies: human, Huh7 cells. The procedure: as §1
A short description of series [4]: Cytotoxicity assay (MTS), HepG2. The class given is cell-based. The settings on record: human, HepG2 cells. The procedure:
as §1

Another series deals with HBV. The series is described as follows: Antiviral activity, HBV. The class given is cell-based. The settings on record: Hepatitis B virus; HBV.
The nature of series [5]: Cytotoxicity assay (MTS), all cell lines tested. The series is classed as cell-based. The settings on record: human, bovine, African green monkey, Clone A, Huh7, HepG2, MDBK, PBM, CEM, Vero and MRC-5 cells; summary in text over all cell lines. The protocol:
as §1
In contrast is the relative toxicity of 2′-C-methyladenosine.

Series [6] in a line: Cytotoxicity assay (MTS), MDBK. The class given is cell-based. The following applies: bovine, MDBK cells.
Another series has as its system HepG2 cells. In words: Mitochondria toxicity assay. The class given is cell-based. The settings on record: 7 days. The procedure:
Fifty microliters of 2× drug dilutions were added per well in a 96 well plate. […] Ribosomal DNA levels were used to determine specific toxicity to mitochondria or generally cytotoxicity. HepG2 cells (5,000 cells/well at 50 μl) were added to the plate. The plate was incubated at 37° C. in a humidified 5% CO2 atmosphere for 7 days. After incubation, the supernatant was removed and stored for lactic acid quantification, and total DNA was extracted from cells as described in the RNeasy 96 handbook (February 1999), pages 22-23. No DNA digestions were performed, therefore total RNA and DNA were extracted. The extracted DNA was amplified and the change in mitochondrial DNA and ribosomal DNA for each sample was determined. The fold difference in mitochondrial DNA normalized for ribosomal DNA relative to control was calculated. Lactic acid quantification was performed by the D-Lactic Acid/L-Lactic acid test kit (Boehringer Mannheim/R-Biopharm/Roche). The total amount of lactic acid produced for each sample was found as well as the fold change in lactic acid production (% of lactic acid/% of rDNA) as described in the manufacturers instructions.

Series [7] concerns Human bone marrow cells, BFU-E. In words: Bone marrow toxicity assay, BFU-E. The class given is cell-based. The protocol: (§2) The culture assays for CFU-GM and BFU-E are performed using a bilayer soft agar or methylcellulose method. Drugs are diluted in tissue culture medium and filtered. After 14 to 18 days at 37° C. in a humidified atmosphere of 5% CO2 in air, colonies of greater than 50 cells are counted using an inverted microscope. The results are presented as the percent inhibition of colony formation in the presence of drug compared to solvent control cultures.

The test system of series [8] is Human bone marrow cells, CFU-GM. In words: Bone marrow toxicity assay, CFU-GM. The series is classed as cell-based. The procedure:
as §2

A further series has as its system replicon HCV RNA. In words: HCV replicon assay (clone not specified). The settings on record: Hepatitis C virus, read-out: EC90 values, range for the replicon clones, range over replicon clones of Table 1.
Series [9] deals with serum amino transferase levels. The settings on record: Gary L. Davis, 2000; cited from earlier work.
The next series has as its system HCV replicon system. The settings on record: Stuyver et al. 2003; cited from earlier work.

Like-named read-outs stand apart in the source and are kept apart here. A value given as a limit tells only on which side of the number the result lay.

HCV 1b NS5B polymerase, Wild-Type NS5B, sequence (Q9WMX2 2420-3010): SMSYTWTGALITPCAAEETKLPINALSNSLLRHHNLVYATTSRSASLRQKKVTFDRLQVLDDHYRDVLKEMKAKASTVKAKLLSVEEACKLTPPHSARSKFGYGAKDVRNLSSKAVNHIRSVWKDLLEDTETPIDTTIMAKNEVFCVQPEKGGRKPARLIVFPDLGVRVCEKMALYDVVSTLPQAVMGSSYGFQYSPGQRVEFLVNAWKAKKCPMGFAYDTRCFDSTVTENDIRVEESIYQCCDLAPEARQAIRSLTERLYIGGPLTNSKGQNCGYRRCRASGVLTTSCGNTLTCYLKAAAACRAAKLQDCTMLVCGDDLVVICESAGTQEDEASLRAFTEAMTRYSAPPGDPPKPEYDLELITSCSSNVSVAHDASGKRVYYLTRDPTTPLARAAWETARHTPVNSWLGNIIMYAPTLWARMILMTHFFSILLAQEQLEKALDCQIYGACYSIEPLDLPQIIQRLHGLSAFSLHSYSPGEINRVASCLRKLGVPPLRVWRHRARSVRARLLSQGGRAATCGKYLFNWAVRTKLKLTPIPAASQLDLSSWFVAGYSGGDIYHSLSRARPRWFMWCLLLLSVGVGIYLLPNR

`C[C@@]1(F)[C@H](O)[C@@H](COP(=O)(O)OP(=O)(O)OP(=O)(O)O)O[C@H]1n1ccc(N)nc1=O`: the half-maximal inhibitory concentration (IC50) in series [1] (IC50, Wild-Type NS5B, batch 1) was 1.7 ± 0.4 µM; in series [1] (IC50, Wild-Type NS5B, batch 2 and 3), 7.7 ± 1.2 µM; in series [1] (inhibitory concentration 50%, range, NS5B polymerase assay) it was 1.7 to 7.7 µM.
With `C[C@@]1(O)[C@H](O)[C@@H](CO)O[C@H]1n1cnc2c(N)ncnc21` [2′-C-methyladenosine], the “activity on HCV surrogate model BVDV (in words)” value in the series on BVDV is “greater activity”. For the same compound, the 90% effect concentration (EC90) was 1.5 µM in the series with BVDV (BVDVcp), 1.2 µM with BVDV (BVDVncp) and greater than 100 µM with RSV. The cytotoxic concentration (CC50) at 4 days in [2] amounted to 37 µM; in series [3], 30 µM; in series [4] it was 58 µM.
As to `C[C@@]1(O)[C@H](O)[C@@H](CO)O[C@H]1n1ccc(N)nc1=O` [2′-C-methylcytidine], in the series on BVDV, the “activity on HCV surrogate model BVDV (in words)” value was “greater activity”. Moreover, the EC90 with BVDV (BVDVcp) is 2 µM; with BVDV (BVDVncp), 0.5 µM; in the series on RSV it was greater than 100 µM; in the series with HBV it was greater than 10 µM; with replicon HCV RNA, 6.6 to 37.4 µM. Further, in series [5], the half-maximal cytotoxic concentration (CC50) was 75 to 100 µM. Further, the half-maximal cytotoxic concentration (CC50) at 4 days in series [2], in series [3], in series [4] and in series [6] was greater than 100 µM in each case. Further, the “Lactic Acid Increase” value with HepG2 cells is listed as “No effect ≥ 33 μM”. Further, the concentration for half-maximal inhibition (IC50) in the series with HepG2 cells (Homo sapiens, 168 h, read-out: mtDNA Synthesis (IC50)) is greater than 25 µM; in [7] (Bone marrow cell) it was 20.1 µM; in [8] (CFU-GM), 13.2 µM.
On to `Cc1cn([C@H]2C[C@H](N=[N+]=[N-])[C@@H](CO)O2)c(=O)[nH]c1=O` [AZT], for which the half-inhibitory concentration (IC50) came to 0.08 µM in series [7] and 0.95 µM in [8].
On to `NC(=O)c1ncn([C@@H]2O[C@H](CO)[C@@H](O)[C@H]2O)n1` [Ribavirin, 1-β-D-ribofuranosyl-1-1,2,4-triazole-3-carboxamide], for which the “patients with serum amino transferase levels reduced to normal” value in [9] is reported as 40%. In the series with HCV replicon system, the “specific anti-HCV activity in the HCV replicon system” value is “does not have specific anti-HCV activity”.
